Test results taken from patent US6166290A, “Glutathione-S-conjugate transport in plants” (The Trustees of the University of Pennsylvania, priority 1997, dated 2000).
“And” between values parts separate entries of the source, which are not always exact repeats. Identical values can stand only once.

Tests used:
[1] = test system: vacuolar GS-X pump (vacuolar membrane vesicles, V. radiata hypocotyls); assay: GS-conjugate uptake by vacuolar membrane vesicles from etiolated hypocotyls of V. radiata; assay type: biochemical, Vigna radiata
Procedure: Values shown are means ±SE (n=3).
Vacuolar membrane vesicles were purified from etiolated hypocotyls of V. radiata cv.
Unless otherwise indicated, [^3 H]medicarpin or [3H]medicarpin-GS uptake was measured at 25° C. in 200 μl reaction volumes containing 3 mM ATP, 3 mM MgSO4, 10 mM creatine phosphate, 16 U/ml creatine kinase, 50 mM KCl, 0.1% (w/v) BSA, 400 mM sorbitol and 25 mM Tris-Mes buffer, pH 8.0. Uptake was initiated by the addition of 12 μl membrane vesicles (30-40 μg protein) and brief mixing of the samples on a vortex mixer. Uptake was terminated by the addition of 1 ml ice-cold wash medium (400 mM sorbitol, 3 mM Tris-Mes, pH 8.0) and vacuum filtration of the suspension through prewetted HA cellulose nitrate filters (pore diameter 0.45 μm). The filters were rinsed twice with a 1 ml ice-cold wash medium, air-dried and radioactivity was determined by liquid scintillation counting.

[2] = test system: vacuolar GS-X pump (vacuolar membrane vesicles, Z. mays roots); assay: GS-conjugate uptake by vacuolar membrane vesicles from roots of Z. mays; assay type: biochemical, Zea mays
[3] = test system: vacuolar GS-X pump (vacuolar membrane vesicles, V. radiata hypocotyls); details: cited from earlier work
[4] = target: T1, AtMRP2 (Arabidopsis thaliana, UniProt Q42093); assay: AtMRP2-dependent uptake by membrane vesicles from pYES3-AtMRP2-transformed DTY168 cells; assay type: biochemical
T1 construct: S. cerevisiae DTY168 (ycf1 null) vacuolar-enriched membrane vesicles
T1 sequence (Q42093 whole entry): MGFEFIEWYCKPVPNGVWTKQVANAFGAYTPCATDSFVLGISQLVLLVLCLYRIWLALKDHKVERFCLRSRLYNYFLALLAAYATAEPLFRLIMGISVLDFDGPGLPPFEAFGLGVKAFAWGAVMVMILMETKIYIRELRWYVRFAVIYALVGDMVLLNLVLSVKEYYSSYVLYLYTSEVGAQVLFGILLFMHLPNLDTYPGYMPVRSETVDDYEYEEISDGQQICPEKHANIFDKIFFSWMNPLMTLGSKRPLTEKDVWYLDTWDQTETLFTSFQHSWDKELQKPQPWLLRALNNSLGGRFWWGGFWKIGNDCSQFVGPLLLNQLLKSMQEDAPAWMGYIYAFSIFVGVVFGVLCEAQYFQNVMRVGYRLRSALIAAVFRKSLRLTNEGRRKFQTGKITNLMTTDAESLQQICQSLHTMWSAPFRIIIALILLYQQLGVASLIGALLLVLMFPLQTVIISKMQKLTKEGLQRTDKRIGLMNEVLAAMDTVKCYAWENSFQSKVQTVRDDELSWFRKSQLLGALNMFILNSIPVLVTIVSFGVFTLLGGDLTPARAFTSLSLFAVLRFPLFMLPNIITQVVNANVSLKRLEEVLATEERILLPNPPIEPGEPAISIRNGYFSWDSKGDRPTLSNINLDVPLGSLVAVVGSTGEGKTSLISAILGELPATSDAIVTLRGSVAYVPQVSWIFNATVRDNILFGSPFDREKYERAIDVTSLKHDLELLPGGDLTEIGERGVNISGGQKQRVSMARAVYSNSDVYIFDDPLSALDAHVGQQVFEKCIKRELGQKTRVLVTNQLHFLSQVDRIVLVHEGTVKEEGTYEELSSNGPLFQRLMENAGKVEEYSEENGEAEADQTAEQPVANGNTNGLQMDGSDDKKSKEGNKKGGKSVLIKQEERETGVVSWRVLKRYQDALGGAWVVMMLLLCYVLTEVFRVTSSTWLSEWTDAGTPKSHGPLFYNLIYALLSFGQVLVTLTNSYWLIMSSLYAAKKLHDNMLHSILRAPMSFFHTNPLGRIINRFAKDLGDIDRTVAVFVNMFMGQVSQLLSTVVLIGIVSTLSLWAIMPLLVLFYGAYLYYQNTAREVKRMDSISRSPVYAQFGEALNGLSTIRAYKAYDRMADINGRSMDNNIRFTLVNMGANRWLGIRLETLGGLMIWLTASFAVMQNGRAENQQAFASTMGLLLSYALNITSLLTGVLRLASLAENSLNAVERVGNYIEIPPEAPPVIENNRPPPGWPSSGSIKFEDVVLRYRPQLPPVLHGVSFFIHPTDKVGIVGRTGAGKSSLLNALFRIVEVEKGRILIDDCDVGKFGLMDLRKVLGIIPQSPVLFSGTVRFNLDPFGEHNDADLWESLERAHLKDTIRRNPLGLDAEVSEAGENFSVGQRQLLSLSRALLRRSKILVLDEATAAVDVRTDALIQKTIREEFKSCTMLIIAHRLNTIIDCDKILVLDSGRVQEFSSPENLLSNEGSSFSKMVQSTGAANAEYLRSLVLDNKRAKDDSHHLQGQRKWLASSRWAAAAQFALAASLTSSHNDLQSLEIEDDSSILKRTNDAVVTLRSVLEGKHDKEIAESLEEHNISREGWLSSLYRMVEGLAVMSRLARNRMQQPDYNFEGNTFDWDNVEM
Procedure: (§1) Cells were grown and vacuolar membrane-enriched vesicles were prepared as described (Kim et al., 1995, J Biol. Chem. 270:2630-2635-). […] Uptake was terminated by the addition of 1 ml ice-cold wash medium (400 mM sorbitol/3 mM Tris-Mes, pH 8.0) and vacuum filtration of the suspension through prewetted Millipore HA cellulose nitrate filters (pore size 0.45 μm). The filters were rinsed twice with wash medium, and the retained radioactivity was determined by liquid scintillation counting. Nonenergized uptake was estimated by the same procedure except that ATP was omitted from the uptake medium.
Membranes from DTY168/pYES3-AtMRP2 cells were incubated for 10 minutes in standard uptake medium containing 61.3 μM [^3 H]DNP-GS after which time 200 mM glucose and 50 units/ml hexokinase (Type F-300 from baker's yeast) were added. […] Control samples were treated identically except that no additions were made after the initial 10 minute incubation period.

[5] = target: T2, AtMRP1 (Arabidopsis thaliana, UniProt Q9C8G9); assay: AtMRP1-dependent uptake by membrane vesicles from pYES3-AtMRP1-transformed DTY168 cells; assay type: biochemical; parameters: rate of C3G-GS uptake: unit not given here
T2 construct: S. cerevisiae DTY168 (ycf1 null) vacuolar-enriched membrane vesicles
T2 sequence (Q9C8G9 whole entry): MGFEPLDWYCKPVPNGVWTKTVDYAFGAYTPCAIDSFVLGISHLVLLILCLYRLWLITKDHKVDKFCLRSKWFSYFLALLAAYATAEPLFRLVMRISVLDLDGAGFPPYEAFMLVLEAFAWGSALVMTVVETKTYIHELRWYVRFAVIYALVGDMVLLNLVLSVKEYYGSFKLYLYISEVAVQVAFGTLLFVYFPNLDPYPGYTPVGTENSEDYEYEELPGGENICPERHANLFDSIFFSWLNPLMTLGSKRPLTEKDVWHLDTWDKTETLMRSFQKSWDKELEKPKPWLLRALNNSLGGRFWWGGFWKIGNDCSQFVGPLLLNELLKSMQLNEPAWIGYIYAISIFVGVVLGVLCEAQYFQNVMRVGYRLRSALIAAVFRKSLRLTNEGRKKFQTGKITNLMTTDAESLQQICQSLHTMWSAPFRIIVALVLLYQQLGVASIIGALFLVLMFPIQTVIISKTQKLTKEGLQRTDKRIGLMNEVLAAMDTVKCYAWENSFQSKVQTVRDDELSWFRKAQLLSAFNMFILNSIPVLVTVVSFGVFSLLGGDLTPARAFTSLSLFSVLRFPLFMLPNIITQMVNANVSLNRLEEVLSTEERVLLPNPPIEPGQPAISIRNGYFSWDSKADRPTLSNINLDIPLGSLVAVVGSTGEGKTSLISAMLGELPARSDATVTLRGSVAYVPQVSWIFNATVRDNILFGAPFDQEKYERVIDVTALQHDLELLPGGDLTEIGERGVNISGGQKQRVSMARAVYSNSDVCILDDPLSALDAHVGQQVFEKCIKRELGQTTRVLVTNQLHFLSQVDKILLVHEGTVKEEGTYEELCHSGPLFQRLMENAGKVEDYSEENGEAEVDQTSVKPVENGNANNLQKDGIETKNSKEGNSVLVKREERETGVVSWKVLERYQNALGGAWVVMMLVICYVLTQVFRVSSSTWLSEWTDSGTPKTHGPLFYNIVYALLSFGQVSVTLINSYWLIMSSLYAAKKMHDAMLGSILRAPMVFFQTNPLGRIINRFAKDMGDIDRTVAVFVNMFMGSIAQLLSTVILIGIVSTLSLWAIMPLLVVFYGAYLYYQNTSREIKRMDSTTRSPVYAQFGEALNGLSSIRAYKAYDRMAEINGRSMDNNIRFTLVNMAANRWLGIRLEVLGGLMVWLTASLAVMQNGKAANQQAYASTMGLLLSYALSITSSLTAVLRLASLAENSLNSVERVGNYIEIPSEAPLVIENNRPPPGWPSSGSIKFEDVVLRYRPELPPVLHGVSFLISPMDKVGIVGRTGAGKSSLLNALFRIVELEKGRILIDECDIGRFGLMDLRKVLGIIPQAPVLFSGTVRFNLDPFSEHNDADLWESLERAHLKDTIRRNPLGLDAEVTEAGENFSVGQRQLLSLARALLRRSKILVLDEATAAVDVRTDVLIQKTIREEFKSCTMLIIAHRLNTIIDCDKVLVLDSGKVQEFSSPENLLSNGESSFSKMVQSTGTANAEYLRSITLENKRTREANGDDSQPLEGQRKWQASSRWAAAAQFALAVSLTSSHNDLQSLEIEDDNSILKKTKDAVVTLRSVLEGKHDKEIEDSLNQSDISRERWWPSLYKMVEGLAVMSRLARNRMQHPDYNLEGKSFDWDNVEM
Procedure: S. cerevisiae strain DTY168 (MATα his6, leu2-3, -112, ura3-52 ycf1::hisG) was transformed with pYES3-AtMRP1 or empty vector lacking the AtMRP1 insert (pYES3) by the LiOAc/PEG method (Giest et al., 1991, Yeast 7:253-263) and selected for uracil prototrophy by plating on AHC medium containing tryptophan (Kim et al., 1994, supra).
For the preparation of membrane vesicles, 15 ml volumes of stationary phase cultures of the transformants were diluted into 1 L of fresh AHC medium and grown to an OD600 nm of about 1.2. Membrane vesicles were purified as described herein and in Kim et al. (1995, supra).
[…] μl reaction volumes containing 3 mM ATP, 3 mM MgSO4, 5 μM gramicidin-D, 10 mM creatine phosphate, 16 units/ml creatine kinase, 50 mM KCl, 1 mg/ml BSA, 400 mM sorbitol, 25 mM Tris-Mes ([…]).
as §1

[6] = target: T3, YCF1 (vacuolar membrane vesicles purified from DTY165 cells) (Saccharomyces cerevisiae, UniProt P39109); assay: [3H]DNP-GS uptake by vacuolar membrane vesicles purified from DTY165 cells; assay type: biochemical
T3 construct: endogenous in cells; host or cells: S. cerevisiae DTY165 (wild type YCF1), vacuolar membrane vesicles
T3 sequence (P39109 whole entry): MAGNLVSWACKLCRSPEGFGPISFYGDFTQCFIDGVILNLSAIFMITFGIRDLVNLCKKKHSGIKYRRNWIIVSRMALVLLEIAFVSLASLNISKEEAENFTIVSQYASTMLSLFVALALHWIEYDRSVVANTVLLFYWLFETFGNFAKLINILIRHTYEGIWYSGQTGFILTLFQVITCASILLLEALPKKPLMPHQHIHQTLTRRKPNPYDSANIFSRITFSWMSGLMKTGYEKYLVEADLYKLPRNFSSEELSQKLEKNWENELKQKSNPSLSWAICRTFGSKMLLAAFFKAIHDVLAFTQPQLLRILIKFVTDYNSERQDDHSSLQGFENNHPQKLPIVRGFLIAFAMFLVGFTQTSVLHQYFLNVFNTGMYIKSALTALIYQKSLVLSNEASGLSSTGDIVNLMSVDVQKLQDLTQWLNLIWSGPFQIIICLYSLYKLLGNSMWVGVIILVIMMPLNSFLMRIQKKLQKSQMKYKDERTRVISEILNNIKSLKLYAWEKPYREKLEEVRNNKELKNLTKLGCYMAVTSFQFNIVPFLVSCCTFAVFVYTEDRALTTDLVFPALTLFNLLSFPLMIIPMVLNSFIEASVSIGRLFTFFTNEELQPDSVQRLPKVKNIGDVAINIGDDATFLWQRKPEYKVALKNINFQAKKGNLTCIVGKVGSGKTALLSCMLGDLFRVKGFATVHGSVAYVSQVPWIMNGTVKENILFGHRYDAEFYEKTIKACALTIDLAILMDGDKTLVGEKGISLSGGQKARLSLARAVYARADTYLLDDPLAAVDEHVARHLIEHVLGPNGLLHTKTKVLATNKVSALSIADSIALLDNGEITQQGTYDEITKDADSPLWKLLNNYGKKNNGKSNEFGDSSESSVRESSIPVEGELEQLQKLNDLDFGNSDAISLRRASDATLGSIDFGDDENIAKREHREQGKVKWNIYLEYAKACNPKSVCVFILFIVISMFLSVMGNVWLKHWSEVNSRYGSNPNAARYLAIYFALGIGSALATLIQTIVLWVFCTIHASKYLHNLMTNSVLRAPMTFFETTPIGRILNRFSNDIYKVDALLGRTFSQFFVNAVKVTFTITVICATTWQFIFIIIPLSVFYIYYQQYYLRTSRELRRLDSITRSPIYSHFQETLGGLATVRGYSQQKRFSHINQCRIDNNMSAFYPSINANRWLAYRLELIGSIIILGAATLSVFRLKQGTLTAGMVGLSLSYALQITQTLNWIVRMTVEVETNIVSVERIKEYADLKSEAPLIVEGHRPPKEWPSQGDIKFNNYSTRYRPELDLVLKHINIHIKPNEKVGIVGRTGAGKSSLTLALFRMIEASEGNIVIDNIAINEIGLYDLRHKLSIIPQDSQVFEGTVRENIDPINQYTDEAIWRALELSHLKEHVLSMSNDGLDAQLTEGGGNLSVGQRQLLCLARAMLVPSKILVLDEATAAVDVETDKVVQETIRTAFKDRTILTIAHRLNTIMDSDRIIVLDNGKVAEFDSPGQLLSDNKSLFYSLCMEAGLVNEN
Procedure: (§2) For the routine preparation of vacuolar membrane vesicles, 15 ml of stationary phase cultures of DTY165 or DTY167 were diluted into 1-liter volumes of fresh YPD medium, grown for 24 hours at 30° C. to an OD600 nm of approximately 0.8 and collected by centrifugation. After washing with distilled water, the cells were converted to spheroplasts with Zymolyase 20T (ICN) (Kim et al., 1994, supra) and intact vacuoles were isolated by flotation centrifugation of spheroplast lysates on Ficoll 400 step gradients as described by Roberts et al. (1991, Methods. Enzymol. 194:644-661). Both the spheroplast lysis buffer and Ficoll gradients contained 2 mg/ml bovine serum albumin, 1 μg/ml aprotinin, 1 μg/ml leupeptin, 1 μg/ml pepstatin, and 1 mM PMSF to minimize proteolysis. The resulting vacuole fraction was vesiculated in 5 mM MgCl2, 25 mM KCl, 10 mM Tris-Mes (pH 6.9) containing 2 mg/ml bovine serum albumin, 1 μg/ml aprotinin, 1 μg/ml leupeptin, 1 μg/ml pepstatin, and 1 mM PMSF, pelleted by centrifugation at 37,000× g for 25 min, and resuspended in suspension medium (1.1 M glycerol, 2 mM dithiothreitol, 1 mM Tris-EGTA, 2 mg/ml bovine serum albumin, 1 μg/ml aprotinin, 1 μg/ml leupeptin, 1 μg/ml pepstatin, 1 mM PMSF, 5 mM Tris-Mes, pH 7.6) (Kim et al., 1995, J. Biol. Chem. 270:2630-2635).
(§3) Unless otherwise indicated, [^3 H]DNP-GS uptake was measured at 25° C. in 200 μl reaction volumes containing 3 mM ATP, 3 mM MgSO4, 5 μM gramicidin-D, 10 mM creatine phosphate, 16 units/ml creatine kinase, 50 mM KC 1, 1 mg/ml bovine serum albumin, 400 mM sorbitol, 25 mM Tris-Mes (pH 8.0), and 66.2 μM [^3 H]DNP-GS (8.7 mCi/mmol) (Li et al., 1995, supra). […] Uptake was initiated by the addition of vacuolar membrane vesicles (10-15 μg of membrane protein), brief mixing of the samples on a vortex mixer and uptake was then allowed to proceed for 1-60 minutes. Uptake was terminated by the addition of 1 ml of ice-cold wash medium (400 mM sorbitol, 3 mM Tris-Mes, pH 8.0) and vacuum filtration of the suspension through prewetted Millipore HA cellulose nitrate membrane filters (pore diameter, 0.45 μm). The filters were rinsed twice with 1 ml of ice-cold wash medium and air-dried, and radioactivity was determined by liquid scintillation counting in BCS mixture (Amersham Corp.). Nonenergized [^3 H]DNP-GS uptake and extravesicular solution trapped on the filters were enumerated by the same procedure except that ATP and Mg^2 +were omitted from the uptake medium.

[7] = test system: vacuolar membrane vesicles purified from DTY167 cells (ycf1Δ mutant); assay type: biochemical, Saccharomyces cerevisiae
Procedure: as §2, §3

[8] = target: T3, YCF1 (vacuolar membrane vesicles purified from DTY165 cells); assay: biochemical; assay type: biochemical
Procedure: (§4) In experiments involving cadmium transport, dithiothreitol and EGTA were removed from the suspension medium to prevent the attenuation of YCF1-dependent Cd^2+ transport otherwise exerted by these compounds. Vesiculated vacuolar membranes were subjected to three cycles of 50-fold dilution into simplified suspension medium (1.1 M glycerol, 5 mM Tris-Mes, pH 8.0), centrifugation at 100,000× g for 35 minutes and resuspension in the same medium before use.
(§5) Singly radiolabeled ^109 Cd.GSn and doubly radio-labeled ^109 Cd[^3 H].GS^n complexes were prepared by sequential gel-filtrationand anion-exchange chromatography of the reaction products generated by incubating 20 mM ^109 CdSO4 (78.4 mCi/mmol) with 40 mM GSH or 40 mM [^3 H]GSH (240 mCi/mmol) in 15 ml 10 mM phosphate buffer (pH 8.0) containing 150 mM KNO3 at 45° C. for 24 hours. For gel-filtration, 2 ml aliquots of the reaction mixture were applied to a column (40×1.5 cm ID) packed with water-equilibrated Sephadex G-1 5, eluted with deionized water and ^109 Cd and/or ^3 H in the fractions was measured by liquid scintillation counting. The fractions encompassed by each of the two ^109 Cd.GSn peaks identified were pooled, lyophilized and redissolved in 4 ml of loading buffer (5 mM Tris-Mes, pH 8.0). For anion-exchange chromatography, 0.5 ml aliquots of the resuspended lyophilizates from gel-filtration chromatography were applied to a Mono-Q HR5/5 column (Pharmacia) equilibrated with the same buffer. Elution was with a linear gradient of NaCl (0.5 ml/minute; 0-500 mM) dissolved in loading buffer. The individual fractions corresponding to the major peaks of ^109 Cd obtained from the Mono-Q column (one each for the peaks resolved by gel-filtration chromatography) were pooled, lyophilized and resuspended in 4 ml deionized water after liquid scintillation counting.
(§6) MgATP-energized, uncoupler-insensitive ^109 Cd^2+ uptake by vacuolar membrane vesicles was measured at 25° C. in 200 μl reaction volumes containing 3 mM ATP, 3 mM MgSO4, 5 μM gramicidin-D, 10 mM creatine phosphate, 16 units/ml creatine kinase, 50 mM KCl, 400 mM sorbitol, 25 mM Tris-Mes (pH 8.0) and the indicated concentrations of ^109 CdSO4, GSH or ^109 Cd- and/or ^3 H-labeled purified Cd.GSn complexes as described herein except that the wash media contained 100 μM CdSO4 in addition to sorbitol (400 mM) and Tris-Mes (3 mM, pH 8.0).

[9] = test system: vacuolar membrane vesicles purified from DTY167 cells (ycf1Δ mutant); assay type: biochemical, Saccharomyces cerevisiae; remark: listed apart in the source
Procedure: as §4, §5, §6

[10] = MgATP-dependent, uncoupler-insensitive
[11] = gramicidin-D 5 μM, vanadate 10 μM, DNP-GS 100 μM
[12] = 66.2 μM DNP-GS, 3 mM MgATP (omitted with MgAMP-PNP), MgAMP-PNP 3 mM, bafilomycin A1 0.5 μM, FCCP 5 μM, gramicidin D 5 μM, NH4Cl 1 mM
[13] = as Table 1 concentrations, 10 min
[14] = 50 μM 109Cd.GS2, bafilomycin A1 0.5 μM, FCCP 5 μM, gramicidin-D 5 μM, NH4Cl 1 mM
[15] = as Table 7 concentrations, 10 min

cyanin-3-glucoside-GS [C3G-GS]
Vmax for MgATP-dependent, uncoupler-insensitive uptake ([1]; V. radiata): 45.3 ± 6.5 nmol/mg/10 min | Km ([1]; V. radiata, read-out: Km for MgATP-dependent, uncoupler-insensitive uptake): 45.7 ± 14 µM | Vmax for MgATP-dependent, uncoupler-insensitive uptake [2]: 79.1 ± 14.7 nmol/mg/10 min | Km ([2]; read-out: Km for MgATP-dependent, uncoupler-insensitive uptake): 39.5 ± 16.6 µM | Km estimated previously in this system [3]: 46 µM | Vmax of GS-X pump ([3]; comparison value for C3G-GS): 45 nmol/mg/min | rate of C3G-GS uptake ([4]; 50 μM): 48.4±2.2 nmol/mg/10 min | rate of C3G-GS uptake ([5]; 50 μM): 7.9±0.7

CCc1cccc(C)c1N(C(=O)CCl)C(C)COC (stereo not drawn) [metolachlor]
MgATP-dependent, uncoupler-insensitive uptake of unconjugated precursor detectable [4]: In no case | MgATP-dependent, uncoupler-insensitive uptake of unconjugated precursor detectable [5]: In no case

C=CC1=C(C)C(Cc2[nH]c(C3c4[nH]c(Cc5[nH]c(C=O)c(C)c5CCOC(=O)CC(=O)O)c(C)c4C(=O)C3C(=O)O)c(CCC(=O)O)c2C)NC1=O (stereo not drawn) [Bn-NCC-1]
Km [4, 10]: 15.2 µM and 15 µM | Vmax for AtMRP2-dependent uptake [4, 10]: 63.1 ± 2.5 nmol/mg/10 min | Km for AtMRP1-dependent uptake [5, 10]: Linear

OC[C@H]1O[C@@H](Oc2cc3c(O)cc(O)cc3[o+]c2-c2ccc(O)c(O)c2)[C@H](O)[C@@H](O)[C@@H]1O [C3G, cyanidin-3-glucoside]
MgATP-dependent, uncoupler-insensitive uptake of unconjugated precursor detectable [4]: In no case | MgATP-dependent, uncoupler-insensitive uptake of unconjugated precursor detectable [5]: In no case

Triton X-100
release (efflux) of accumulated [3H]DNP-GS after hexokinase trap [4]: more than 3 fold

N[C@@H](CCC(=O)N[C@@H](CS)C(=O)NCC(=O)O)C(=O)O [GSH, glutathione]
MgATP-dependent, uncoupler-insensitive DNP-GS uptake plus compound [6]: 50.6 ± 2.3 nmol/mg/10 minutes | MgATP-dependent, uncoupler-insensitive DNP-GS uptake as percentage of control ([6]; dty165 vacuolar membrane vesicles, 10 min): 105.6 | MgATP-dependent, uncoupler-insensitive DNP-GS uptake plus compound [7]: 4.6 ± 1.1 nmol/mg/10 minutes | MgATP-dependent, uncoupler-insensitive DNP-GS uptake as percentage of control ([7]; dty167 vacuolar membrane vesicles, 10 min): 70.8 | MgATP-dependent, uncoupler-insensitive uptake of unconjugated precursor detectable [4]: In no case | t1/2 of GSH stimulation of Cd2+ uptake [8]: < 5 min | MgATP-dependent, uncoupler-insensitive uptake of unconjugated precursor detectable [5]: In no case

O=[N+]([O-])c1ccc(Cl)c([N+](=O)[O-])c1 [DNP]
MgATP-dependent, uncoupler-insensitive uptake of unconjugated precursor detectable [4]: In no case | MgATP-dependent, uncoupler-insensitive uptake of unconjugated precursor detectable [5]: In no case

Gramicidin D
[3H]Medicarpin-GS uptake with treatment, +MgATP ([1]; 65 μM medicarpin-GS, 3 mM MgATP, gramicidin-D 5 μM, vanadate 10 μM, DNP-GS 100 μM): 71.2 ± 3.0 nmol/mg/10 minutes | [3H]Medicarpin-GS uptake with treatment, -MgATP ([1]; 65 μM medicarpin-GS, gramicidin-D 5 μM, vanadate 10 μM, DNP-GS 100 μM): 13.2 ± 2.1 nmol/mg/10 minutes | [3H]Medicarpin-GS uptake as percentage of control, +MgATP [1, 11]: 83.2% | [3H]Medicarpin-GS uptake as percentage of control, -MgATP [1, 11]: 79.0% | inhibition of MgATP-dependent [3H]medicarpin-GS uptake ([1]; vanadate 10 μM, DNP-GS 100 μM, gramicidin D): 17% | DNP-GS uptake plus the compound indicated [6, 12]: 45.8 ± 1.4 nmol/mg/10 minutes | DNP-GS uptake as percentage of control plus the compound indicated [6, 13]: 58.9% | 109Cd.GS2 uptake plus addition [9, 14]: 9.3 ± 2.0 nmol/mg/10 minutes | 109Cd.GS2 uptake as percentage of control [9, 15]: 56.6% | DNP-GS uptake plus the compound indicated [7, 12]: 5.8 ± 0.1 nmol/mg/10 minutes | DNP-GS uptake as percentage of control plus the compound indicated [7, 13]: 37.7% | 109Cd.GS2 uptake plus addition [8, 14]: 77.8 ± 6.4 nmol/mg/10 minutes | 109Cd.GS2 uptake as percentage of control [8, 15]: 73.5% | decrease of MgATP-dependent Cd.GS2 uptake ([8]; text to Table 7): 22%
